# Test results: ChEMBL document CHEMBL1201862, “PubChem BioAssay data set” (2004)
# Active and inactive are the calls of the source.
# Tests used:
# [1] = toxicity toward HepG2 liver cells – cell-based, plate reader, cherry-pick, antagonist series, cytotoxicity control, dose response (AID 743416); format: functional
# [2] = blockade of melanocortin 4 receptor signaling – cell-based, plate reader, cherry pick, counter-screen for LGR2 antagonist project, dose response (AID 743444); format: functional;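 note: transfected HEK 293 cells stimulated with alpha-MSH peptide; potency of inhibitors of the alpha-MSH evoked signal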
# [3] = blockers of bursicon-stimulated LGR2 cAMP reporter – cell-based, HEK293, CRE-luciferase reporter, cherry pick, set 2, dose response (AID 743343); format: functional;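 note: transfected cells were stimulated with diluted bursicon conditioned medium after compound addition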
# [4] = Luminescence Cell-Based Dose Confirmation HTS to Identify Activators of 5'UTR Stem-Loop Driven Alpha-Synuclein mRNA Translation in H4 Neuroglioblastoma Cells. [Related pubchem assays: 1829 (Project Summary), 1814 (Primary HTS)]; format: functional
# H4 = experiment: Luminescence Cell-Based Dose Response HTS to Identify Activators of 5'UTR Stem-Loop Driven Prion Protein mRNA Translation in H4 Neuroglioblastoma Cells. [Related pubchem assays: 1829 (Project Summary), 1814 (Primary HTS)]; format: functional; details: Homo sapiens
# [5] = target: T1, Methionyl-tRNA synthetase, putative (Trypanosoma brucei brucei, UniProt Q38C91); format: functional, Trypanosoma brucei brucei strain 927/4 GUTat10.1
# T1 sequence (Q38C91 whole entry): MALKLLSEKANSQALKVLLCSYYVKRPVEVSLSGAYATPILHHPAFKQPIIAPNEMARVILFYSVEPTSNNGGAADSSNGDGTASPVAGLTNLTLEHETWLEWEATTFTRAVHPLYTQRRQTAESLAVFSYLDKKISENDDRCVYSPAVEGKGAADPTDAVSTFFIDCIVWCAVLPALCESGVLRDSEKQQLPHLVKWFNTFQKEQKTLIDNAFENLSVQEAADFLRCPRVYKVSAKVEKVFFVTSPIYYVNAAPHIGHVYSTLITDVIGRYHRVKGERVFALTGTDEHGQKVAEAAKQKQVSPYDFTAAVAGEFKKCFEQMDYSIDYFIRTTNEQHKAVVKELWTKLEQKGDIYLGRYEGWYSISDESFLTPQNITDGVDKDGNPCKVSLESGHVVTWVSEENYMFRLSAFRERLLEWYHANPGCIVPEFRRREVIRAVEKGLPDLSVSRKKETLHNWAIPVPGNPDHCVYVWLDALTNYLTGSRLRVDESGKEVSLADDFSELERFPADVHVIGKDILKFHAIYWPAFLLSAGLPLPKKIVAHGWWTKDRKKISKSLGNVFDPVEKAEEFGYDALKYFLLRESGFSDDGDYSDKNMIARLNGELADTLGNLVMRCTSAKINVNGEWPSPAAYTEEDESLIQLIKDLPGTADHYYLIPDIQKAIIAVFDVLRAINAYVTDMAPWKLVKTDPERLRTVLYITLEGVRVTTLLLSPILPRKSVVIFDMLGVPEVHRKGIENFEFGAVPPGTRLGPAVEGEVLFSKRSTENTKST
# [6] = target: T1, Methionyl-tRNA synthetase, putative; format: functional, Trypanosoma brucei brucei strain 927/4 GUTat10.1; remark: listed apart in the source
# [7] = Luminescence Cell-Based Dose Response HTS to Identify Activators of Luciferase Translation or Activity in H4 […] Cells. [Related pubchem assays: 1829 (Project Summary), 1814 (Primary HTS)]; format: functional
# [8] = Counterscreen for inhibitors of Trypanosoma brucei methionyl tRNA synthetase (MetRS): Luminescence-based cell-based high throughput dose response assay to identify compounds that are cytotoxic to Jurkat human T lymphocyte cells.; format: functional
# [9] = Trypanosoma cruzi growth suppression in host cells – NIH3T3 host cells, beta-gal luminescence, confirmation (AID 2044); format: functional, cell-based;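 note: intracellular parasites grown in NIH/3T3 mouse fibroblasts as host cells; luminescent beta-galactosidase reporter signal from transgenic T. cruzi replicating inside host cells; inhibitors lower the luminescence signal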
# Vero = experiment: mammalian cell viability reduction – secondary assay, cytotoxicity control for West Nile virus antiviral project, dose response (AID 1650); format: functional; details: Chlorocebus sabaeus
# [10] = Luminescence Cell-Based Dose Retest to Confirm Inhibitors of Cancer Stem Cells. [Related pubchem assays (depositor defined):AID2717, AID2721]; format: functional; details: Homo sapiens
# [11] = NIH3T3 cell viability loss – ATP luminescence, mouse fibroblasts, counter-screen, dose response (AID 2010); format: functional, cell-based;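 note: cells exposed to compound for about 90 hours before reading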
# Paired box protein Pax-8 = Paired box protein Pax-8 (Homo sapiens, UniProt Q06710); experiment: PAX8 transcriptional activity inhibition in RMG-I – RMG-I cells, luciferase, cherry-pick, dose response (AID 687027); format: functional, cell-based;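 note: luciferase reporter driven by Pax8 target thyroperoxidase promoter measured by SteadyGlo luminescence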
# Streptokinase A = target: T2, Streptokinase A (Streptococcus pyogenes serotype M1, UniProt P10520); experiment: viability-normalized secreted streptokinase activity reduction – plasminogen activation absorbance, OD405, dose response (AID 1914); format: functional, Streptococcus pyogenes M1 GAS;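 note: secreted streptokinase activity via plasminogen activation per viability signal from cell pellet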
# T2 sequence (P10520 whole entry): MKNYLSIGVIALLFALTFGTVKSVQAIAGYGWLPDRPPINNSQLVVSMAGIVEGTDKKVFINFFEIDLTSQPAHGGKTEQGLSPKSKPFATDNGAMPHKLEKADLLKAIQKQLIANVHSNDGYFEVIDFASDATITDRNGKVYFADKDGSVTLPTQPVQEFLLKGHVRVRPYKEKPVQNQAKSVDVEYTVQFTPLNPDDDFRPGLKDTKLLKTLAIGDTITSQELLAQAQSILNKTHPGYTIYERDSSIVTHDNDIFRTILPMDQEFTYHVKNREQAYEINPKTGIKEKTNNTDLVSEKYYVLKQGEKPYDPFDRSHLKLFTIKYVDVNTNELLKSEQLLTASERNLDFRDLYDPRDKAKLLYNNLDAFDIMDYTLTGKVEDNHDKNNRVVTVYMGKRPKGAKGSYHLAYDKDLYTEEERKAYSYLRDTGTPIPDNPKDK
# Streptococcus = experiment: GAS UMAA2166 growth inhibition – luminescence, BacTiterGlo, counter-screen for streptokinase expression inhibitor project, dose response (AID 1915); format: functional, organism-based;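 note: potency for reduction of bacterial viability or growth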
# [12] = target: T3, Heat shock factor protein 1 (Mus musculus, UniProt P38532); experiment: enhancement of HSF1-driven luciferase signal – cell-based, NIH3T3, luminescence, dose retest, confirmation (AID 435004); format: functional;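 note: stress induced by proteasome inhibitor MG132 added 30 min after compound; luciferase reporter driven by HSF1 response element in NIH3T3 cells; actives raise luminescence as potentiators of the MG132 stress response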
# T3 sequence (P38532 whole entry): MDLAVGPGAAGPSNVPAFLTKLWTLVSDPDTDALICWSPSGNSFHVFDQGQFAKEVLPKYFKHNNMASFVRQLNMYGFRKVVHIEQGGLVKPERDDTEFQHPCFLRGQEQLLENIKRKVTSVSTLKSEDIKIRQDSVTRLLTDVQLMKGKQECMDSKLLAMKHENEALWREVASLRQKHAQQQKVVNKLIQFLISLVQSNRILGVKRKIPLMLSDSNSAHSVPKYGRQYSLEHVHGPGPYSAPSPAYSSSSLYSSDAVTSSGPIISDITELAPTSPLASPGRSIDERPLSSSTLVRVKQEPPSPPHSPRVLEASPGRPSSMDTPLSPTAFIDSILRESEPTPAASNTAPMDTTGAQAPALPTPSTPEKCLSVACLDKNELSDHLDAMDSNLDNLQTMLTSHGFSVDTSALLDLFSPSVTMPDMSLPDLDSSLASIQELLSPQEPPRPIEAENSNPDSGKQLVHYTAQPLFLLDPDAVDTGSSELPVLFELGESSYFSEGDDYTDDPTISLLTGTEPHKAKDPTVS
# [13] = system: Streptococcus sp. 'group A'; experiment: Streptococcus pyogenes SK(-)GAS viability under kanamycin – luminescence, BacTiterGlo, confirmation, counter-screen for streptokinase expression inhibitor project, dose response (AID 1900); format: functional, organism-based
# [14] = target: T4, Calpain-2 catalytic subunit (Sus scrofa, UniProt P43367); experiment: m-calpain protease blockers, concentration series – biochemical, fluorogenic peptide substrate, dose response (AID 1420); format: functional
# T4 sequence (P43367 whole entry): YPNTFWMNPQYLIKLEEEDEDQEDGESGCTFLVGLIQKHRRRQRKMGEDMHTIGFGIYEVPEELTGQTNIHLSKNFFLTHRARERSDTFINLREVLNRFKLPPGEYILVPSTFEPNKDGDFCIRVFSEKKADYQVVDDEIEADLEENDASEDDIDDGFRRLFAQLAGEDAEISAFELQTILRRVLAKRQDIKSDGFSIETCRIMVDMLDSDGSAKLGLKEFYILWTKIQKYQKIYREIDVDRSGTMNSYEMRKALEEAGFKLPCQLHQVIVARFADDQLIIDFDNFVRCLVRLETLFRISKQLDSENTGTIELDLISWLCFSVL
# Leucine aminopeptidase = target: T5, Leucine aminopeptidase (Plasmodium falciparum 3D7, UniProt Q8IL11); experiment: P. falciparum M17LAP inhibitors, primary screen, biochemical, fluorogenic H-Leu-NHMec substrate, 1536-well (AID 1619); format: functional
# T5 sequence (Q8IL11 whole entry): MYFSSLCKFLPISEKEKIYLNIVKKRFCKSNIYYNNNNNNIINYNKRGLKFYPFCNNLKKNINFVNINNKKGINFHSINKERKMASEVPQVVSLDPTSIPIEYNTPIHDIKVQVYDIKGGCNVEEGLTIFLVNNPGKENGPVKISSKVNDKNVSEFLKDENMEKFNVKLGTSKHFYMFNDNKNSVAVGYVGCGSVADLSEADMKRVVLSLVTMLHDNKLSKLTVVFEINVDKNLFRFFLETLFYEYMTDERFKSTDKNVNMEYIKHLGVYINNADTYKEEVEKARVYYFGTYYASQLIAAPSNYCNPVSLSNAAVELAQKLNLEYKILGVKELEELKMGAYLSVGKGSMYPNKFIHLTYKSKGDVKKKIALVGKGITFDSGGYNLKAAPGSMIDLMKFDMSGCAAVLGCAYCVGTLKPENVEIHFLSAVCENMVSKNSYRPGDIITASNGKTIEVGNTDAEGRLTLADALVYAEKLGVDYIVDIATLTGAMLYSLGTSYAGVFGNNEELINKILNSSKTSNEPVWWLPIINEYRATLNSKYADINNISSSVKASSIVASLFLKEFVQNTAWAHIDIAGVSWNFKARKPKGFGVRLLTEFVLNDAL
# Estrogen receptor = target: T6, Estrogen receptor (Homo sapiens, UniProt P03372);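 note: potency for inhibiting coactivator peptide recruitment to the receptor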
# T6 sequence (P03372 whole entry): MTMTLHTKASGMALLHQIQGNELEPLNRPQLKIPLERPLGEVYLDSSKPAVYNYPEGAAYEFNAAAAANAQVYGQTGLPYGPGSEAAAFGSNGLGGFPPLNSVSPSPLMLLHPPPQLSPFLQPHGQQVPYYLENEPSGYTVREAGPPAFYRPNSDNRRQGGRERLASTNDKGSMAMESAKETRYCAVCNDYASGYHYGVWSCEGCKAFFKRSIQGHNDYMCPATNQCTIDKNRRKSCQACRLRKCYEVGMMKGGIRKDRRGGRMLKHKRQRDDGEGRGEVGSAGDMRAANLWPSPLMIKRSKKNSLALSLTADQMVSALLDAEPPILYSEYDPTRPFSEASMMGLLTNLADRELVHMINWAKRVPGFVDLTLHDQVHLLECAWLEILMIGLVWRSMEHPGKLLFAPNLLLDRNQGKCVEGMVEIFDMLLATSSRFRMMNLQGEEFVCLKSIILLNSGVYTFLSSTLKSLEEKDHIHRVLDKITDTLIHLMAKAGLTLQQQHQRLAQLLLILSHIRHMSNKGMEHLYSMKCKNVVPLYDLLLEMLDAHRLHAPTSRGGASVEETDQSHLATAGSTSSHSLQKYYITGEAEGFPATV
# [15] = P. falciparum Dd2 growth inhibitors, dose response, SYBR Green, cherry-picked samples (AID 1159567); format: functional, cell-based
# [16] = growth inhibition of PfATP4-mutant resistant parasites – NITD609-resistant line, SYBR Green, dry powder, dose response (AID 1159571); format: functional, cell-based;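 note: parasites synchronized at ring stage by sorbitol before testing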
# [17] = Dd2 malaria parasite growth inhibition potency – SYBR Green, dry powder samples, dose response (AID 1159566); format: functional, cell-based;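 note: potency for growth inhibition with lower SYBR green DNA signal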
# [18] = growth inhibition of yeast DHODH-expressing 3D7 parasites – SYBR Green, dry powder samples, dose response (AID 1159570); format: functional, cell-based;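 note: parasite growth measured after 72 hours of compound exposure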
# Chain of Paired box protein Pax-8 (Q06710 whole entry): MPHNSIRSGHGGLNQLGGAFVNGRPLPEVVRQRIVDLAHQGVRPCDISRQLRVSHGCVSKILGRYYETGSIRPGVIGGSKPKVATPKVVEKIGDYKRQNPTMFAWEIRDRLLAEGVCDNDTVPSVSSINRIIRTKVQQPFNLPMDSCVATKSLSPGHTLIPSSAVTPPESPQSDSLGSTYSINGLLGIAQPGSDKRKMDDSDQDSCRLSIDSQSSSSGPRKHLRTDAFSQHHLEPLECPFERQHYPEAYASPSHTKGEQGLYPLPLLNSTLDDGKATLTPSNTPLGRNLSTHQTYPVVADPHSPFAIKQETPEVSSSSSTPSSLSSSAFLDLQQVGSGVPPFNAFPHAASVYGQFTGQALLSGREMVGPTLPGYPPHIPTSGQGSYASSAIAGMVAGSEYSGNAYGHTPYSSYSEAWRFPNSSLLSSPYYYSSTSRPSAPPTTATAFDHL
compound,measurement,setting,value
COc1ccc(-n2nnnc2-c2nc3ccccc3s2)cc1,AC50,[1],> 52 µM (inactive)
same,AC50,[2],7.96 µM (active)
same,AC50,[3],6.52 µM (active)
Cc1ccccc1Oc1cc(NC(=O)Cn2cnc([N+](=O)[O-])c2)cc([N+](=O)[O-])c1,EC50,[4],> 120 µM (not active)
same,EC50,H4,> 120 µM (not active)
same,IC50,[5],51.3 µM (inactive)
same,IC50,[6],52.5 µM (inactive)
same,EC50,[7],> 120 µM (not active)
same,IC50,[8],37.3 µM (inactive)
O=C(Nc1cccc(Cl)c1)Nc1csc([N+](=O)[O-])c1,EC50,[9],3.47 µM (active)
same,CC50,Vero,> 100 µM (active)
same,AC50,[10],4.34 µM (active)
same,EC50,[11],> 60 µM (not active)
same,AC50,Paired box protein Pax-8,11.6 µM (active)
same,EC50,Streptokinase A,> 150 µM (not active)
same,EC50,Streptococcus,15.3 µM (active)
same,EC50,[12],31.6 µM (active)
same,EC50,[13],9.68 µM (active)
O=C(NCc1cccs1)c1cccc(Nc2nc3cc(Br)ccc3[nH]2)c1,IC50,[14],11.1 µM (not active)
same,IC50,[5],38.7 µM (inactive)
same,IC50,[6],31.3 µM (inactive)
same,IC50,[8],83.1 µM (inactive)
CC(=O)NS(=O)(=O)c1ccc(NC(=O)c2cc(-c3ccc(C)cc3)nc3ccccc23)cc1,IC50,Leucine aminopeptidase,13.7 µM (active)
CCOC(=O)c1c(NC(=O)CSc2nnc(C)c(=O)[nH]2)sc2c1CCC2,IC50,Leucine aminopeptidase,7.77 µM (active)
O=C(NCC1CCCO1)C(=Cc1cccc([N+](=O)[O-])c1)C(=O)NCC1CCCO1 (stereo not drawn),CC50,Vero,23.6 µM (active)
same,AC50,Paired box protein Pax-8,3.43 µM (active)
O=C(Nc1cccc(-c2cnc3ccccc3n2)c1)c1cccc(NC(=O)c2ccco2)c1,IC50,Estrogen receptor,13.1 µM (active)
CCOC(=O)c1c(NC(=O)CCS(=O)(=O)c2ccccc2)sc2c1CCN(C(C)C)C2,CC50,Vero,69.1 µM (active)
CC1(C)CC(=O)c2cnc(NCC3CCCO3)nc2C1 (stereo not drawn),IC50,Estrogen receptor,> 50 µM (not active)
COc1ccc(-c2ccccc2[C@H]2[C@@H](C#N)N(C(=O)C3CCCCC3)[C@H]2CO)cc1,AC50,[15],1.03 µM (active)
same,AC50,[16],5.94 µM (active)
same,AC50,[17],1.52 µM (active)
same,AC50,[18],1.38 µM (active)
